The test system of series [1] is Rattus norvegicus. As to the kind of experiment: Decrease in cumulative food intake in high-fat diet fed CD rat at 5 mg/kg, ip after 1 to 6 hrs. It is filed as functional, organism-based. Set-up: dose 5 mg/kg.
Series [2] in a line: Concentration in rat brain at 2.5 mg/kg, iv after 4 hrs. It is filed as ADME, organism-based. The arrangement: dose 2.5 mg/kg, route intravenous. Conditions: read-out: Drug uptake.
Series [3] in a line: Half life in rat at 2.5 mg/kg, iv. It is filed as ADME, organism-based. Set-up: dose 2.5 mg/kg, route intravenous. The following applies: in vivo.
The species entered for series [4] is Rattus norvegicus. As to the kind of experiment: Decrease in cumulative food intake in high-fat diet fed CD rat after 24 hrs. It is filed as functional, organism-based.
Series [5] deals with Melanocortin receptor 5 (Homo sapiens, UniProt P33032). Briefly: Binding affinity at human MC5 receptor.
In series [6] the target is T1, Melanocortin receptor 4 (Homo sapiens, UniProt P32245). Briefly: Displacement of [125I]NDP-MSH from human MC4 receptor expressed in HEK293 cells. It is filed as cell-based. On the technique in general: Loss of bound radioactivity is the signal in a displacement assay; it reports binding, not function.
Series [7] in a line: Plasma clearance in rat at 2.5 mg/kg, iv. It is filed as ADME, organism-based. The arrangement: dose 2.5 mg/kg, route intravenous.
Series [8] can be described thus: Concentration in rat brain at 2.5 mg/kg, iv after 1 hr. It is filed as ADME, organism-based. Set-up: dose 2.5 mg/kg, route intravenous. Conditions: read-out: Drug uptake.
Series [9] addresses T1, Melanocortin receptor 4. As to the kind of experiment: Intrinsic activity at human MC4 receptor expressed in CHO cells assessed as cAMP accumulation relative to alpha-MSH. It is filed as functional, cell-based. In general terms: Changes in cAMP serve as a functional read-out for many G protein-coupled receptors.
The nature of series [10]: Ratio of drug level in brain to plasma in rat at 2.5 mg/kg, iv. It is filed as ADME, organism-based. The arrangement: dose 2.5 mg/kg, route intravenous. Conditions: read-out: BPR.
The target of series [11] is Melanocyte-stimulating hormone receptor (Homo sapiens, UniProt Q01726). Briefly: Binding affinity at human MC1 receptor.
Series [12] deals with T1, Melanocortin receptor 4. Briefly: Agonist activity at human MC4 receptor expressed in CHO cells assessed as cAMP accumulation by ELISA. It is filed as functional, cell-based.
A short description of series [13]: Oral bioavailability in rat at 10 mg/kg, po. It is filed as ADME, organism-based. Conditions: in vivo.
For series [14], the target named is Melanocortin receptor 3 (Homo sapiens, UniProt P41968). Briefly: Binding affinity at human MC3 receptor.
Series [15] in a line: Volume of distribution in rat at 2.5 mg/kg, iv. It is filed as ADME, organism-based. Set-up: dose 2.5 mg/kg, route intravenous. Conditions: in vivo.
Series [16] can be described thus: Apparent permeability across apical to basolateral side of Caco-2 cells. It is filed as ADME, cell-based. Conditions: human. A general note: Caco-2 monolayers are a common model of the intestinal barrier.
For series [17], the system named is Caco-2. As to the kind of experiment: Ratio of permeability from […] side of Caco-2 cells. Conditions: human. It is filed as ADME, cell-based.
The nature of series [18]: AUC in rat at 10 mg/kg, po. Set-up: dose 10 mg/kg, route oral. It is filed as ADME, organism-based. The following applies: plasma.
The test system of series [19] is Rattus norvegicus. As to the kind of experiment: Decrease in cumulative food intake in high-fat diet fed CD rat at 30 mg/kg, ip after 1 to 6 hrs. It is filed as functional, organism-based. The arrangement: dose 30 mg/kg.
Series [20] is described as follows: Cmax in rat at 10 mg/kg, po after 3 hrs. It is filed as ADME, organism-based. The arrangement: dose 10 mg/kg, route oral. The following applies: in vivo.
Series [21] in a line: Distribution coefficient, log D by shake flake method. It is filed as physicochemical. The following applies: octanol/water.

The structures appear in SMILES notation. Activity calls are given as the source filed them. The calls are words filed in the database; no cut-off is given here.

T1 sequence (P32245 whole entry): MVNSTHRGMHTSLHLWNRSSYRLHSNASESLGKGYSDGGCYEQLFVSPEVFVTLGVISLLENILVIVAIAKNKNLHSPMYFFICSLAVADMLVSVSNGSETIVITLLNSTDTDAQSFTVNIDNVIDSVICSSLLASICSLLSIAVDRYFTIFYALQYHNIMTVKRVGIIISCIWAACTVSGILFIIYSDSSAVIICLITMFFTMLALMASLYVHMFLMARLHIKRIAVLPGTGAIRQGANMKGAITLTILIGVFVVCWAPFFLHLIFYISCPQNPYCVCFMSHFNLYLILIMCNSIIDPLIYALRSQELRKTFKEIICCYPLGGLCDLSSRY
Melanocortin receptor 3, sequence (P41968 whole entry): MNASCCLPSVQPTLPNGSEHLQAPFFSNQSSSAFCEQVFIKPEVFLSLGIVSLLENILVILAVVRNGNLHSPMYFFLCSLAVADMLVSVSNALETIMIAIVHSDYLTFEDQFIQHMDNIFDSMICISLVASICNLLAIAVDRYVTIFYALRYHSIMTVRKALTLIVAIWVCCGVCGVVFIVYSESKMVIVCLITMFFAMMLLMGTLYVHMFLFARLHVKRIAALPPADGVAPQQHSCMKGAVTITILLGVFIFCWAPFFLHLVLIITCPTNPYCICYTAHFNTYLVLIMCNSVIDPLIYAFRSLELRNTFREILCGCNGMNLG
Melanocyte-stimulating hormone receptor, sequence (Q01726 whole entry): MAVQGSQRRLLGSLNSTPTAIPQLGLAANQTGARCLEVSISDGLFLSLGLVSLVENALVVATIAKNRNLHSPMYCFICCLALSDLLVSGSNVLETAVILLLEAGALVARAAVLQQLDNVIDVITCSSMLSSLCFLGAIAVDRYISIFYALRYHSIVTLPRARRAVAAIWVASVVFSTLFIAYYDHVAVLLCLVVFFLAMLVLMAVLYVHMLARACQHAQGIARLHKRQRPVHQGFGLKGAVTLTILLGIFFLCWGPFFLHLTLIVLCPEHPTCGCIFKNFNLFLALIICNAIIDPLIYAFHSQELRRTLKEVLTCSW
Melanocortin receptor 5, sequence (P33032 whole entry): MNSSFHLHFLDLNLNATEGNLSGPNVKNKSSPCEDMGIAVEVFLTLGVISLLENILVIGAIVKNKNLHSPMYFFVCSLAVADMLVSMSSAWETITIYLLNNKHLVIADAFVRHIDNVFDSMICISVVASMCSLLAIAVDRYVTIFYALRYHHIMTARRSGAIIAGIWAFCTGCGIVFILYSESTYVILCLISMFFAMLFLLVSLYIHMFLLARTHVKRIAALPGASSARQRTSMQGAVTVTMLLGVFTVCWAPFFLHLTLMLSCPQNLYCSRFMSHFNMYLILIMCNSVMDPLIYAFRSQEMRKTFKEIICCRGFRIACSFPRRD

As for `CCNC(C)Cc1cccc(C(F)(F)F)c1` (stereo unspecified), in series [1], the outcome was Active.

Broadly, the half-life is how long it takes for the measured level to halve. Higher therefore signals slow loss. Usually Ki stands for a measure of affinity in units of concentration, obtained from inhibition or displacement. Read a high Ki as lower affinity. One may read the clearance as the rate of elimination divided by the concentration. A low value points to inefficient removal. Broadly, the EC50 is the midpoint of the concentration-response curve. As a reminder, the bioavailability is the share of a dose that reaches the circulation, judged against a reference dose that is usually intravenous. Read a high bioavailability as good availability. For orientation: Vd means a proportionality between amount in the body and measured concentration, not a real space. One may read the Papp A→B as how fast a substance crosses the layer from the apical side. The term AUC denotes concentration integrated over time. A higher AUC goes with high exposure. For orientation: Cmax means the peak of the concentration-time curve. What is called logD is the decadic logarithm of the distribution of all forms, ionised or not, between an organic phase and buffer at a given pH. As to `Cc1ccc(N2CCN(C(=O)[C@@H]3CN(C4CCOCC4)C[C@H]3c3ccc(Cl)cc3)CC2)c([C@@H](N)C(C)C)c1`, in [2], the concentration at 4 h was 32 ng/g. The compound further gave a half-life in series [3] of 27 h. For the same compound, the Activity result in series [4] is “Dose-dependent effect”. The Ki in series [5] came to 0.24 µM; in series [6], 0.011 µM; in series [11] it was 3.35 µM; in series [14], 1.6 µM. Besides, the clearance in series [7] was 118 mL/min/kg. In addition, the concentration at 1 h in [8] stood at 5 ng/g. Also, the Intrinsic activity in series [9] was found to be 105%. Also, in series [10], the Kp was found to be 0.7. Moreover, the EC50 in [12] came out at 0.024 µM. Moreover, in series [13], the bioavailability was 22%. In [15], this compound gave a Vd of 270 L/kg. Further, in series [16], the Papp A→B is 0.8 ×10⁻⁶ cm/s. In addition, in [17], the Ratio is 25. Also, in series [18], the AUC was determined as 154 ng·h/mL. Besides, in series [19], the outcome was Active. In series [20], this compound registered a Cmax of 16 ng/mL. In series [21], this compound returned a logD of 1.8.
